As usually defined, the IC50 is the concentration at which inhibition is half-maximal.

The target in one assay is T1, human CLK1 (Homo sapiens, UniProt P49759).
T1 construct: Recombinant human CLK1 (129-end); GST (N); purchased SignalChem C57-11G; host or cells: Sf9 insect cells
The assay can be described thus: CLK1 enzyme assay (ADP-Glo). The class given is biochemical. The note with it: ADP-Glo, ATP 10 μM; read-out: CLK1 IC50. The method, then: The ability of compounds to inhibit human CLK1 kinase activities was determined using a commercially available ADP-Glo™ Kinase Assay kit (Promega, Cat #V9102) according to the manufacturer's protocol.
(§1) Recombinant human CLK1 (129-end) (expressed in Sf9 insect cells with an N-terminal GST tag) was purchased from SignalChem (Cat #C57-11G). Recombinant full length human MBP (expressed in E. Coli cells with an N-terminal GST tag.) was purchased from SignalChem (Cat #M42-54G). This assay, run in a 384-well plate format, is a generic method for measuring kinase activities using an ADP-Glo Kinase Assay Kit. The basic assay procedure involves two steps: (1) Enzymatic step: inhibitors are incubated with the kinase and then ATP (included in the ADP-Glo Kinase Assay Kit) and the MBP protein are added to start the enzymatic reaction; (2) Detection step: after the kinase reaction, first ADP-Glo™ Reagent is added to terminate the kinase reaction and deplete the remaining ATP. Second, the Kinase Detection Reagent is added to simultaneously convert ADP to ATP and allow the newly synthesized ATP to be measured using a luciferase/luciferin reaction. The light generated is measured using a luminometer.
Briefly, CLK1 (16 nM) in the enzymatic buffer solutions (40 mM Tris, pH 7.5, 20 mM MgCl2, 0.1 mg/ml BSA, 50 μM DTT) were mixed with various concentrations of inhibitors (dissolved in 100% DMSO). These solutions were incubated for 30 minutes at 25° C., and subsequently a mixture of substrate peptide and ATP was added with the final peptide and ATP concentrations at 2 μM and 10 μM, respectively. The final reaction mixture of enzyme-substrate-ATP-compound was incubated for 60 minutes at 25° C.
Afterwards ADP-Glo™ Reagent was added and the mixture was incubated at 25° C. for 60 minutes. Then Kinase Detection Reagent was added and the final mixture was incubated at 25° C. for 60 minutes. The luminescence signal of the final solution was measured on an Envision instrument (PerkinElmer). The percent (%) inhibition at each concentration of a compound is calculated relative to the luminescence signal in the Max and Min control wells contained within each assay plate. […] The concentrations and percent inhibition values for a test compound are plotted and the concentration of the compound required to achieve 50% inhibition (IC50) is determined with a four-parameter logistic dose response equation.
Background: In ADP-Glo the light output rises with the ADP produced.

Another assay addresses T2, human HIPK1 (Homo sapiens, UniProt Q86Z02).
T2 construct: Recombinant human HIPK1 (156-555); GST (N); purchased SignalChem H03-11G; host or cells: Sf9 insect cells
Kind of assay: HIPK1 enzyme assay (ADP-Glo). The class given is biochemical. The note with it: ADP-Glo, ATP 5 μM; read-out: HIPK1 IC50. The method, then:
The ability of compounds to inhibit human HIPK1 kinase activities was determined using a commercially available ADP-Glo™ Kinase Assay kit (Promega, Cat #V9102) according to the manufacturer's protocol.
as §1, with “HIPK1 (156-555)” for “CLK1 (129-end)”, “#H03-11G).” for “#C57-11G).”, “tag)” for “tag.)”
Briefly, HIPK1 (4 nM) in the enzymatic buffer solutions (40 mM Tris, pH 7.5, 20 mM MgCl2, 0.1 mg/ml BSA, 50 μM DTT) were mixed with various concentrations of inhibitors (dissolved in 100% DMSO). These solutions were incubated for 30 minutes at 25° C., and subsequently a mixture of substrate peptide and ATP was added with the final peptide and ATP concentrations at 0.05 mg/ml and 5 μM, respectively. The final reaction mixture of enzyme-substrate-ATP-compound was incubated for 90 minutes at 25° C.
Afterwards ADP-Glo™ Reagent was added and the mixture was incubated at 25° C. for 60 minutes. Then Kinase Detection Reagent was added, and the final mixture was incubated at 25° C. for 60 minutes. The luminescence signal of the final solution was measured on an Envision instrument (PerkinElmer). The percent (%) inhibition at each concentration of a compound is calculated relative to the luminescence signal in the Max and Min control wells contained within each assay plate. […] The concentrations and percent inhibition values for a test compound are plotted and the concentration of the compound required to achieve 50% inhibition (IC50) is determined with a four-parameter logistic dose response equation.

T2 sequence (Q86Z02 156-555): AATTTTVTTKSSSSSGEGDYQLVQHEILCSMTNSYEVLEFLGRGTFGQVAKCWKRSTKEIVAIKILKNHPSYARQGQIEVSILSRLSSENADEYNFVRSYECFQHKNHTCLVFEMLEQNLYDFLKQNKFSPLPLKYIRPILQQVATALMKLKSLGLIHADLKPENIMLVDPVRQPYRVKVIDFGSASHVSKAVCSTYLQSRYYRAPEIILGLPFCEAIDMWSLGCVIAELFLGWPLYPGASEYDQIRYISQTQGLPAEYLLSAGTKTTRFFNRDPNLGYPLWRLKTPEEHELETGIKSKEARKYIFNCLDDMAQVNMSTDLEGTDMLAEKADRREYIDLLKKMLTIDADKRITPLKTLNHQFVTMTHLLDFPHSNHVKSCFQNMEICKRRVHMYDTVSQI
T1 sequence (P49759 129-484 limits assumed): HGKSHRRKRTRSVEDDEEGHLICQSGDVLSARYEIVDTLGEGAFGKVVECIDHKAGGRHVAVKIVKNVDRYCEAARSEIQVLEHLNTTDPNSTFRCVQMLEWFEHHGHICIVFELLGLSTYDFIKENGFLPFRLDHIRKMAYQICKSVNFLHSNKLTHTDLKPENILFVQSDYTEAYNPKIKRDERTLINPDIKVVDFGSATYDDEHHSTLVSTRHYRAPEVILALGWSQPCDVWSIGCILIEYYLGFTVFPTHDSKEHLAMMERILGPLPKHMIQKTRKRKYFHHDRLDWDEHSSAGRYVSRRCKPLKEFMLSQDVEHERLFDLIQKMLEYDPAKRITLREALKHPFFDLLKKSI

With `CN(Cc1ccccc1)C1=N/C(=C\c2ccc3c(c2)OCO3)C(=O)N1` [Example 23, (Z)-5-(benzo[d][1,3]dioxol-5-ylmethylene)-2-(benzyl(methyl)amino)-3,5-dihydro-4H-imidazol-4-one], the values for the IC50 on human CLK1 and at human HIPK1 were 100 to 1000 nM and above 10000 nM, respectively.

As for `CN(C1=N/C(=C\c2ccc3ncsc3c2)C(=O)N1)c1ccc(Cl)cc1` [Example 24, (Z)-5-(benzo[d]thiazol-6-ylmethylene)-2-((4-chlorophenyl)(methyl)amino)-3,5-dihydro-4H-imidazol-4-one], the IC50 was 100 to 1000 nM at human CLK1 and above 10000 nM on human HIPK1.

Consider `COc1ccc(NC2=N/C(=C\c3ccc4ncsc4c3)C(=O)N2)cc1` [Example 25, (Z)-5-(benzo[d]thiazol-6-ylmethylene)-2-((4-methoxyphenyl)amino)-3,5-dihydro-4H-imidazol-4-one], for which the IC50 at human CLK1 is below 100 nM; at human HIPK1, 100 to 1000 nM.

In the case of `O=C1NC(Nc2ccccc2)=N/C1=C\c1ccc2[nH]cnc2c1` [Example 26, (Z)-5-((1H-benzo[d]imidazol-5-yl)methylene)-2-(phenylamino)-3,5-dihydro-4H-imidazol-4-one], the figures for the IC50 at human CLK1 and on human HIPK1 were below 100 nM and 100 to 1000 nM, respectively.

With `O=C(O)CCN(C1=N/C(=C\c2ccc3c(c2)OCO3)C(=O)N1)c1ccccc1` [Example 27, (Z)-3-((4-(benzo[d][1,3]dioxol-5-ylmethylene)-5-oxo-4,5-dihydro-1H-imidazol-2-yl)(phenyl)amino)propanoic acid], the IC50 on human CLK1 and at human HIPK1 was 1000 to 10000 nM throughout.

Consider `CN(Cc1ccccc1)C1=N/C(=C\c2ccc3ncsc3c2)C(=O)N1` [Example 28, (Z)-5-(benzo[d]thiazol-6-ylmethylene)-2-(benzyl(methyl)amino)-3,5-dihydro-4H-imidazol-4-one], for which the half-inhibitory concentration (IC50) was in the range of 100 to 1000 nM at human CLK1 and 1000 to 10000 nM on human HIPK1.

As for `O=C1NC(NCCN2CCOCC2)=N/C1=C\c1ccc2ncsc2c1` [Example 29, (Z)-5-(benzo[d]thiazol-6-ylmethylene)-2-((2-morpholinoethyl)amino)-3,5-dihydro-4H-imidazol-4-one], the IC50 was in the range of 100 to 1000 nM on human CLK1 and 1000 to 10000 nM at human HIPK1.

Turning to `CN(C1=N/C(=C\c2ccc3[nH]cnc3c2)C(=O)N1)c1ccccc1` [Example 30, (Z)-5-((1H-benzo[d]imidazol-5-yl)methylene)-2-(methyl(phenyl)amino)-3,5-dihydro-4H-imidazol-4-one], the IC50 is 100 to 1000 nM on human CLK1 and above 10000 nM on human HIPK1.

Regarding `CN(CCN1CCOCC1)C1=N/C(=C\c2ccc3ncsc3c2)C(=O)N1` [Example 32, (Z)-5-(benzo[d]thiazol-6-ylmethylene)-2-(methyl(2-morpholinoethyl)amino)-3,5-dihydro-4H-imidazol-4-one], the IC50 was 100 to 1000 nM on human CLK1 and above 10000 nM on human HIPK1.

Turning to `CN(CC1CC1)C1=N/C(=C\c2ccc3ncsc3c2)C(=O)N1` [Example 33, (Z)-5-(benzo[d]thiazol-6-ylmethylene)-2-((cyclopropylmethyl)(methyl)amino)-3,5-dihydro-4H-imidazol-4-one], the figures for the half-maximal inhibitory concentration (IC50) at human CLK1 and on human HIPK1 were 100 to 1000 nM and above 10000 nM, respectively.

As for `O=C1NC(N(Cc2ccccc2)c2ccccc2)=N/C1=C\c1ccc2[nH]cnc2c1` [Example 35, (Z)-5-((1H-benzo[d]imidazol-5-yl)methylene)-2-(benzyl(phenyl)amino)-3,5-dihydro-4H-imidazol-4-one], the figures for the IC50 on human CLK1 and on human HIPK1 were 100 to 1000 nM and above 10000 nM, respectively.

In the case of `NC(=O)CCN(C1=N/C(=C\c2ccc3c(c2)OCO3)C(=O)N1)c1ccccc1` [Example 36, (Z)-3-((4-(benzo[d][1,3]dioxol-5-ylmethylene)-5-oxo-4,5-dihydro-1H-imidazol-2-yl)(phenyl)amino)propanamide], the IC50 was 100 to 1000 nM at human CLK1 and above 10000 nM at human HIPK1.

On to `CN(C1=N/C(=C\c2ccc3c(c2)OCO3)C(=O)N1)c1ccc(N)cc1` [Example 37, (Z)-2-((4-aminophenyl)(methyl)amino)-5-(benzo[d][1,3]dioxol-5-ylmethylene)-3,5-dihydro-4H-imidazol-4-one], for which the IC50 at human CLK1 was 1000 to 10000 nM; on human HIPK1 it was above 10000 nM.

With `COc1ccc(N(C)C2=N/C(=C\c3ccc4ncsc4c3)C(=O)N2)cc1` [Example 38, (Z)-5-(benzo[d]thiazol-6-ylmethylene)-2-((4-methoxyphenyl)(methyl)amino)-3,5-dihydro-4H-imidazol-4-one], the half-inhibitory concentration (IC50) is 100 to 1000 nM on human CLK1 and 1000 to 10000 nM at human HIPK1.

With `O=C1NC(N(CC2CC2)c2ccccc2)=N/C1=C\c1ccc2c(c1)OCCO2` [Example 39, (Z)-2-((cyclopropylmethyl)(phenyl)amino)-5-((2,3-dihydrobenzo[b][1,4]dioxin-6-yl)methylene)-3,5-dihydro-4H-imidazol-4-one], the IC50 on human CLK1 and at human HIPK1 was above 10000 nM in each case.

Consider `O=C1NC(Nc2ccc(Cl)cc2)=N/C1=C\c1ccc2ncsc2c1` [Example 40, (Z)-5-(benzo[d]thiazol-6-ylmethylene)-2-((4-chlorophenyl)amino)-3,5-dihydro-4H-imidazol-4-one], for which the IC50 is below 100 nM at human CLK1 and 1000 to 10000 nM at human HIPK1.

For `O=C1NC(N(Cc2ccccc2)c2ccccc2)=N/C1=C\c1ccc2ncsc2c1` [Example 41, (Z)-5-(benzo[d]thiazol-6-ylmethylene)-2-(benzyl(phenyl)amino)-3,5-dihydro-4H-imidazol-4-one], the figures for the IC50 on human CLK1 and on human HIPK1 were below 100 nM and above 10000 nM, respectively.

As to `O=C1/C(=C/c2ccc3ncsc3c2)N=C(N(Cc2ccccc2)c2ccccc2)N1Cc1ccccc1` [Example 42, (Z)-5-(benzo[d]thiazol-6-ylmethylene)-3-benzyl-2-(benzyl(phenyl)amino)-3,5-dihydro-4H-imidazol-4-one], the IC50 at human CLK1 and on human HIPK1 was above 10000 nM in each case.

In the case of `CN(C1=N/C(=C\c2ccc3ncsc3c2)C(=O)N1)c1ccc([N+](=O)[O-])cc1` [Example 43, (Z)-5-(benzo[d]thiazol-6-ylmethylene)-2-(methyl(4-nitrophenyl)amino)-3,5-dihydro-4H-imidazol-4-one], the values for the IC50 at human CLK1 and on human HIPK1 were 1000 to 10000 nM and above 10000 nM, respectively.

In the case of `CN(C1=N/C(=C\c2ccc3ncsc3c2)C(=O)N1)c1ccc(N)cc1` [Example 44, (Z)-2-((4-aminophenyl)(methyl)amino)-5-(benzo[d]thiazol-6-ylmethylene)-3,5-dihydro-4H-imidazol-4-one], the IC50 at human CLK1 was in the range of 100 to 1000 nM; at human HIPK1, 1000 to 10000 nM.

Turning to `CC(C)NC1=N/C(=C\c2ccc3ncsc3c2)C(=O)N1C` [Example 45, (Z)-5-(benzo[d]thiazol-6-ylmethylene)-2-(isopropylamino)-3-methyl-3,5-dihydro-4H-imidazol-4-one], the half-maximal inhibitory concentration (IC50) at human CLK1 is below 100 nM; at human HIPK1 it was 1000 to 10000 nM.

Values taken from patent US12643887B2, “Heterocyclic derivatives with cardiomyocyte proliferation activity for treatment of heart diseases” (Tongji University, priority 2019, dated 2026).
